Consider 38 compounds from patent US11548860B2, “Pharmacophores, compounds and methods having application in the treatment of cancer through inhibition of CYP17A1 and CYP19A1” (MANGOSUTHU UNIVERSITY OF TECHNOLOGY, priority 2015, dated 2023).

By pIC50 is commonly meant −log10 of the IC50, conventionally taken in molar units. One may read the IC50 as the concentration that gives 50% inhibition.

Molecules are shown by their SMILES.

Series [1] relates to CYP17A1. Particulars: actual (literature) activity of training/test set compounds, cited from earlier work; for IC50: unit nM.
Series [2] in a line: Solubility in DMSO. Type of series: physicochemical.
Series [3] can be described thus: Toxicity studies on the molecules in Table 2.
Series [4] deals with CYP17A1 (Homo sapiens (Human), UniProt P05093). Nature of the series: CYP17A1 inhibition, CYP17A1 bactosomes, progesterone substrate, LC-MS/MS. Particulars: Table 2. Type of series: biochemical.
Chain of CYP17A1 (Homo sapiens (Human), UniProt P05093) (P05093 whole entry): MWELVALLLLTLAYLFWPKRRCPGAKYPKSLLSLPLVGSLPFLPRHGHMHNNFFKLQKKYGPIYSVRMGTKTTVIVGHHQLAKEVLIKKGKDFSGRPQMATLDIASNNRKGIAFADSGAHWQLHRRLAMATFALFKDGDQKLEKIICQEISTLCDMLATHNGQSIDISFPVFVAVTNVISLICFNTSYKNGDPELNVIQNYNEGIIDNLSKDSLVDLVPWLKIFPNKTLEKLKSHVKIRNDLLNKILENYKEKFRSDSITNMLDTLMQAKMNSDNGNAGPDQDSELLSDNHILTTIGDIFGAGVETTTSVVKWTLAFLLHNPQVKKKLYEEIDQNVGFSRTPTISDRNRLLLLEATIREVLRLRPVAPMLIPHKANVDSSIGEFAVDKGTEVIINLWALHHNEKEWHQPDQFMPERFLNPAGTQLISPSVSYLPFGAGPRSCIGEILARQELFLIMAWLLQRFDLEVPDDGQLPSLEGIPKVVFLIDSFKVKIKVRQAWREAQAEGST
Protocol: CYP17A1 inhibition was measured using 20 pmol/ml CYP17A1 bactosomes (Cypex, Dundee, UK) and 0.1 μM progesterone as a substrate and 1 mM NADPH in 50 mM potassium phosphate buffer pH 7.4 containing 5 mM magnesium chloride. Inhibitors were dissolved in DMSO and serially diluted in seven ½ log steps, final concentrations ranging from 50 μA to 50 nM. Reaction volume was 100 μl and final DMSO concentration was 1% (v/v). Reactions were started by the addition of NADPH and incubated at 37° C. for 20 minutes with shaking at 1800 rpm on a Bioshake IQ (Q-Instruments, Jena, Germany). Reactions were terminated by the addition of 200 μl methanol containing 1 μM tolbutamide as an internal standard.

On to `NC(=O)c1ccc2cc(C3(O)CCn4cncc43)ccc2c1` (racemic) [3b [11]], for which, in series [1], the pIC50 is given as 7.540 and the half-inhibitory concentration (IC50) is 29 nM.
As to `CNC(=O)c1ccc2cc(C3CCn4cncc43)ccc2c1` (racemic) [3d [11]], in series [1], the pIC50 is reported as 7.890 and the IC50 is 13 nM.
Take `c1ccc(-c2ccc3c(c2)CCC3n2ccnc2)cc1` (racemic) [5ay [7]]: in series [1], the pIC50 is recorded as 6.620 and the IC50 was 240 nM.
Regarding `O=C(NC1CC1)c1ccc2cc(C3(O)CCn4cncc43)ccc2c1` (racemic) [5bx [7]], in series [1], the negative logarithm of the IC50 (pIC50) is listed as 6.600 and the IC50 is 250 nM.
As to `CC(C)C(O)(c1ccc(-c2ccccc2)cc1)c1c[nH]cn1` (racemic) [7 [12]], in series [1], the negative logarithm of the IC50 (pIC50) is on record as 7.480 and the IC50 was 33 nM.
Regarding `COc1ccc(-c2ccc(C(O)(c3c[nH]cn3)C(C)C)cc2)cc1` (racemic) [8 [12]], in series [1], the pIC50 was 7.270 and the IC50 was 54 nM.
Regarding `CC(c1ccc(-c2ccsc2)cc1)n1ccnc1` (racemic) [12 [9]], in series [1], the negative logarithm of the IC50 (pIC50) is listed as 6.050 and the IC50 is 876 nM.
`CC(C)C(O)(c1cccc(-c2ccc(F)cc2)c1)c1c[nH]cn1` (racemic) [13 [12]]: in series [1], the pIC50 was 7.720 and the IC50 is 19 nM.
In the case of `CC(C)C(O)(c1ccc(-c2ccc(F)cc2)cc1)c1c[nH]cn1` (racemic) [15 [12]], in series [1], the pIC50 is 7.570 and the IC50 was 27 nM.
Take `COc1ccc(-c2ccc3c(c2)CCCC3(O)c2ccncc2)cc1F` (racemic) [16 [9]]: in series [1], the pIC50 is 5.480 and the IC50 was 3340 nM.
As for `CC(C)C(O)(c1ccc(-c2ccc(Cl)cc2)cc1)c1c[nH]cn1` (racemic) [16 [12]], in series [1], the pIC50 is reported as 7.550 and the IC50 was 28 nM.
For `CCNC(=O)c1ccc2cc(C3(O)CCn4cncc43)ccc2c1` (racemic) [25 [2]], in series [1], the negative-log IC50 (pIC50) is 6.730 and the IC50 is 186 nM.
Consider `CC(=O)Nc1cccc(-c2ccc(C(C)(O)c3c[nH]cn3)cc2)c1` (racemic) [32 [12]], for which, in series [1], the pIC50 was 7.420 and the half-maximal inhibitory concentration (IC50) was 38 nM.
As for `CCC(O)(c1ccc(-c2cccc(NC(C)=O)c2)cc1)c1c[nH]cn1` (racemic) [33 [12]], in series [1], the pIC50 is recorded as 7.400 and the IC50 is 40 nM.
Consider `CC(=O)Nc1cccc(-c2ccc(C(O)(c3c[nH]cn3)C3CC3)cc2)c1` (racemic) [34 [12]], for which, in series [1], the pIC50 is recorded as 7.350 and the IC50 is 45 nM.
Consider `CNC(=O)c1ccc2cc(C(O)(c3cnc[nH]3)C(C)C)ccc2c1` (centres unmarked) [1 [11]], for which, in series [1], the pIC50 is given as 7.800 and the IC50 was 16 nM.
For the compound `Brc1ccc(Cc2ccncc2)cc1` [3g [11]], in series [1], the pIC50 is recorded as 6.400 and the IC50 is 400 nM.
On to `Oc1cccc(-c2ccc(Cc3ccncc3)cc2)c1` [3i [11]], for which, in series [1], the pIC50 is recorded as 7.060 and the IC50 was 88 nM.
As to `CC(c1ccc(-c2ccc(F)cc2)cc1)n1ccnc1` (centres unmarked) [4 [9], 4-fluoro-4-[1-(1H-imidazolyl)ethyl]biphenyl], in series [1], the negative logarithm of the IC50 (pIC50) is given as 6.610 and the IC50 is 248 nM.
Turning to `Oc1ccc(-c2ccc(Cc3ccncc3)cc2)cc1F` [5ax [7]], in series [1], the pIC50 is recorded as 6.770 and the concentration for half-maximal inhibition (IC50) is 170 nM.
As to `Oc1ccc(-c2ccc(Cc3ccncc3)cc2)cc1O` [9 [9]], in series [1], the pIC50 is 7.280 and the IC50 was 52 nM.
Take `COc1ccc(-c2ccc(Cc3ccncc3)cc2)cc1OC` [9a [9]]: in series [1], the pIC50 was 7.280 and the IC50 is 52 nM.
Turning to `CC(C)=C(c1ccncc1)c1ccc(-c2cccc(O)c2)cc1` [13 [2]], in series [1], the negative-log IC50 (pIC50) is recorded as 7.250 and the IC50 was 56 nM.
Regarding `COc1ccc2cc(-c3ccc(Cc4ccncc4)cc3)ccc2c1` [13 [9]], in series [1], the pIC50 is given as 5.750 and the IC50 is 1790 nM.
With `CC(C)C(O)(c1cccc(-c2ccc(Cl)cc2)c1)c1c[nH]cn1` (centres unmarked) [14 [12]], in series [1], the pIC50 is on record as 7.310 and the IC50 is 49 nM.
In the case of `CC(C)=C(c1ccncc1)c1ccc(-c2ccc(O)c(F)c2)cc1` [15 [2]], in series [1], the pIC50 is 7.120 and the IC50 is 75 nM.
Take `Cl.Fc1ccc(-c2ccc3c(c2)CCC3c2cccnc2)cc1` (centres unmarked) [15 [13]]: in series [1], the pIC50 is given as 4.700 and the half-maximal inhibitory concentration (IC50) was 20000 nM.
On to `CC(C)=C(c1ccncc1)c1ccc(-c2ccc(O)c(O)c2)cc1` [16 [2]], for which, in series [1], the pIC50 was 7.430 and the IC50 is 37 nM.
Consider `CC(=O)Nc1cccc(-c2ccc(C(O)(c3c[nH]cn3)C(C)C)cc2)c1` (centres unmarked) [17 [12]], for which, in series [1], the pIC50 is recorded as 7.620 and the IC50 is 24 nM.
Consider `Br.Oc1ccc(-c2ccc3c(c2)CCCC3c2ccncc2)cc1F` (centres unmarked) [20 [13]], for which, in series [1], the pIC50 is on record as 7.190 and the IC50 was 64 nM.
Regarding `CC(C)=C(c1ccncc1)c1ccc(-c2ccc(N)c(N)c2)cc1` [22 [2]], in series [1], the pIC50 is 7.120 and the IC50 was 75 nM.
Take `CNC(=O)c1cccc(-c2ccc(C(O)(c3c[nH]cn3)C(C)C)cc2)c1` (centres unmarked) [22 [12]]: in series [1], the pIC50 is on record as 7.360 and the IC50 is 44 nM.
`CNC(=O)Nc1cccc(-c2ccc(C(O)(c3c[nH]cn3)C(C)C)cc2)c1` (centres unmarked) [24 [12]]: in series [1], the pIC50 is listed as 7.680 and the IC50 is 21 nM.
Turning to `CC(=O)Nc1cccc(-c2ccc(C(O)(c3c[nH]cn3)C(C)C)cc2)n1` (centres unmarked) [26 [12]], in series [1], the pIC50 was 7.440 and the IC50 is 36 nM.
`Oc1ccc(-c2ccc(Cc3ccncc3)cc2)cc1` [30 [10]]: in series [1], the pIC50 was 6.630 and the IC50 was 236 nM.
As to `COC(C)C(=O)Nc1cccc(NC(C(N)=O)c2ccccc2)c1` (centres unmarked) [Compound 5, N-(3-{[carbamoyl(phenyl)methyl]amino}phenyl)-2-methoxypropanamide], the “Soluble in DMSO” value in series [2] is recorded as “Yes”. Also, the safety profile entry in series [3] was “excellent safety profiles”.
Consider `O=C(Nc1ccccc1O)c1ccc(Oc2cccc(C(=O)Nc3ccccc3O)c2)cc1` [Compound 9, N-(2-hydroxyphenyl)-4-{3-[(2-hydroxyphenyl)carbamoyl]phenoxyl}benzamide], for which, in series [2], the “Soluble in DMSO” value was “Yes”. For the same compound, in series [3], the safety profile result was “excellent safety profiles”. The “inhibitory potency of CYP17A1, level in words” value in series [4] was “micromolar levels”.
As for `CNC(=O)c1ccc2cc([C@@]3(O)CCn4cncc43)ccc2c1` [TAK700], in series [1], the pIC50 is recorded as 7.550 and the IC50 was 28 nM.
